Data published in patent US20220332758A1, “PEPTIDE-BASED COMPOSITIONS AND METHODS FOR TREATING ALZHEIMER'S DISEASE” (Board of Regents, The Universityof Texas System, priority 2019, published 2022).
Entries after “also recorded” stand apart in the source; their conditions may differ.

Experiments:
[1] = target: T1, latent 20S core proteasome, T-L peptidase (Homo sapiens, UniProt P25787+P60900); assay: Trypsin-like (T-L) peptidase activity of the core proteasome; type: biochemical
T1 construct: purified from erythrocytes; purchased Boston Biochem, Inc. or Enzo Life Sciences, Inc; host or cells: human erythrocytes
Experimental: Determination of Proteasome Activity. Human housekeeping core (20S) proteasome purified from erythrocytes was purchased from Boston Biochem, Inc. (Cambridge, Mass.) or from Enzo Life Sciences, Inc. (Farmingdale, N.Y.). Multiple batches of the proteasomes were used and performed reproducibly. The stock proteasome was diluted to 0.2 mg/mL working solution in “dilution buffer” (50 mM Tris/HCl, pH 8, 20% glycerol). The following model peptide substrates, releasing fluorescent 7-amino-4-methylcoumarin (AMC) reporter group after cleavage, were used: succinyl-LeuLeuValTyr-AMC (SEQ ID NO: 14) (for the ChT-L peptidase; SucLLVY-AMC; Bachem Bioscience Inc., Philadelphia, Pa.), butoxycarbonyl-LeuArgArg-AMC (T-L; Bachem Bioscience Inc., Philadelphia, Pa.) and carbobenzoxy-LeuLeuGlu-AMC (PGPH; Enzo Life Sciences Inc., Farmingdale, N.Y.). […] After mixing, the plate was transferred to a Fluoroskan Ascent plate reader (Thermo Fisher Scientific Inc., Waltham, Mass.) for 1 h (37° C.), with fluorescence readouts once per minute. […] The reaction rates were calculated from a linear segment of kinetic curves constructed from measurements in 1-min intervals. Reaction rates were calculated using a linear fit performed with the Slope Analyser and Enzyme Kinetics applications launched within Origin Pro 2019 (OriginLab Corporation, Northampton, Mass.). […]

Stability in human serum = type: in vitro ADME
[2] = target: T2, proteasome activity in W^1118 flies (Drosophila melanogaster, UniProt P40301+Q9XZJ4); assay: Proteasome activity in flies fed the compounds; type: in vivo; conditions: fed for 10 days
T2 construct: from tissue
T2 sequence (Q9XZJ4 whole entry): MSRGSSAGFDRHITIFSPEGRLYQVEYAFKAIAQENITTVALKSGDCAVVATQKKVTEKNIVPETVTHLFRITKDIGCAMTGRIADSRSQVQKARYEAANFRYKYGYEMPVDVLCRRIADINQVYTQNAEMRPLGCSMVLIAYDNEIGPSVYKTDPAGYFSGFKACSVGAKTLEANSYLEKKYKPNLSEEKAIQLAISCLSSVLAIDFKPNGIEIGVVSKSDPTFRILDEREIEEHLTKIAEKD
T2 sequence (P40301 whole entry): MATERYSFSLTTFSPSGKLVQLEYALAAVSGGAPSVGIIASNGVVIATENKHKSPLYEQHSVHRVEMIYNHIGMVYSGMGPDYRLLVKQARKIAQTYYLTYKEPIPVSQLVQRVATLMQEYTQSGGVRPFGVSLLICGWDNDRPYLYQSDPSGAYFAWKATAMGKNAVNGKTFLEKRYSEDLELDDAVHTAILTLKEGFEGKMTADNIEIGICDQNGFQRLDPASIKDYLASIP
Experimental: Fly Lines and Strain Maintenance. UAS-ProsBeta5 (Staudt, N. et al. PLoS Genet 1, e55, doi:10.1371/journal.pgen.0010055 (2005)) and Elav-GS-GAL4; UAS-hAPP; UAS-hBACE1 (56756) stocks were obtained from the Bloomington Drosophila Stock Center (NIH P40OD018537). The lines were maintained on agar-cornmeal-dextrose-yeast growth media (Ren, C., Finkel, S. E. & Tower, J. Exp Gerontol 44, 228-235, doi:10.1016/j.exger.2008.10.002 (2009)) in a humidified 24° C. incubator with 12:12-hour light:dark cycle. The crosses were set up with female virgins of the respective GAL4 driver line and male UAS-ProsBeta5 or W^1118 flies. Progeny were collected within 48 hours of eclosion and allowed to mate on 10% sugar/yeast (SY10) media (Skorupa, D. A., et al. Aging Cell 7, 478-490, doi:10.1111/j.1474-9726.2008.00400.x (2008)) for another 48 hours. After this period, females were separated and sorted into sets of 25 flies per vial containing SY10 media supplemented either with 400 μM mifepristone (RU486) or ethanol vehicle, mixed directly into the food. 8 μM Blue Dye #1 was added to food containing RU486 for the purpose of identification. Carbon dioxide was used to briefly anesthetize flies for sorting. Flies were moved to vials of fresh media every two to three days.
Plate-based proteasome activity assay. […]

N=C(N)NCCCC(NC(=O)CN)C(=O)NC(CCCCN)C(=O)NC(CCCCN)C(=O)NC(CCCNC(=N)N)C(=O)NC(CCCNC(=N)N)C(=O)NC(CCC(N)=O)C(=O)N1Cc2ccccc2C[C@H]1C(=O)N1C(C(=O)NC(CCCNC(N)N)C(=O)N2CCCC2C(=O)NC(CO)C(=O)O)CC2CCCCC21 (stereo partly drawn) [(5), GRKKRRQ-TOD-RPS]
effect on trypsin-like (T-L) activity [1]: weak inhibitory effects; also recorded: did not seem to significantly affect | half-life (Stability in human serum): ~2 h | proteasome activity in flies [2]: enhance proteasome activity when fed to flies

NCCCCC(N)C(=O)NC(CCCCN)C(=O)NC(CCCCN)C(=O)Nc1cc(NC(=O)C(CCCCN)NC(=O)C(CCCCN)NC(=O)C(N)CCCCN)cc(C(=O)NC(CCCCN)C(=O)NC(CCCCN)C(=O)NC(CCCCN)C(=O)O)c1 (stereo not drawn) [(8)]
effect on trypsin-like (T-L) activity [1]: weak inhibitory effects; also recorded: did not seem to significantly affect | stability in serum (in words) (Stability in human serum): rapidly modified from triple-lysines to double-lysines | proteasome activity in flies [2]: enhance proteasome activity when fed to flies
